In patent US20170291890A1 (Epizyme, Inc., priority 2014, published 2017):

Molecular target: T1, KDM5A (Homo sapiens, UniProt P29375)
T1 construct: C-terminal FLAG-tagged KDM5A^1-1090 was purchased from BPS Biosciences; FLAG (C); purchased BPS Biosciences
T1 sequence (P29375 1-1090): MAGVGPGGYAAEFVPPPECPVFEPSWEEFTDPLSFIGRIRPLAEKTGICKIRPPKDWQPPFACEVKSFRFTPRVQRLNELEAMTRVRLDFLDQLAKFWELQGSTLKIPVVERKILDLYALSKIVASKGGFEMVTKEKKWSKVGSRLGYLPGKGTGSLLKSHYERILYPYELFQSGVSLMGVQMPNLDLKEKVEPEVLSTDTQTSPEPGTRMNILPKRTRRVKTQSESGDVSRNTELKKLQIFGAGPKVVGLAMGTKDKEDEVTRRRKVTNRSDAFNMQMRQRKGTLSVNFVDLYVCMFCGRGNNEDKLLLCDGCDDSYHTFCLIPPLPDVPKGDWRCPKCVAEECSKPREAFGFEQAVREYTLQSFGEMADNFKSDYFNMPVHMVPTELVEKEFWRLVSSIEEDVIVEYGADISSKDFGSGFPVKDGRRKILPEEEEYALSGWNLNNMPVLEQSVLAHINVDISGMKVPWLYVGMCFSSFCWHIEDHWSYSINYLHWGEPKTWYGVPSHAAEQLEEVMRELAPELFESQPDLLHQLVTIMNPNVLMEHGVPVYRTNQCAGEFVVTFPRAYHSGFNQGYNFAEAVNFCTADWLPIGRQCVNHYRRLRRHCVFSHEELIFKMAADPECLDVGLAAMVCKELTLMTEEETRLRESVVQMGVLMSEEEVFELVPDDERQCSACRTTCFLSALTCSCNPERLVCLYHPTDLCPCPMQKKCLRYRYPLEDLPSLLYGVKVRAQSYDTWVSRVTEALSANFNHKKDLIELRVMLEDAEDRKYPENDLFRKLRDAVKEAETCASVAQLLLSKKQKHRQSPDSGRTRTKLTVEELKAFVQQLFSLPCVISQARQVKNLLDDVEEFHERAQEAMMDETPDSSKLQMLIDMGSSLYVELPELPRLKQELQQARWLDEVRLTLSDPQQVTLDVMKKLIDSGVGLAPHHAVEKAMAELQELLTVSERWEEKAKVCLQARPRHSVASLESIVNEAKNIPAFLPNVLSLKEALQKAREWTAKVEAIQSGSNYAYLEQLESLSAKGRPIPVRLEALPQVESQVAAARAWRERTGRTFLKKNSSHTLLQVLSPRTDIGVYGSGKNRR
Experiment: KDM5A Assay (SAMDI mass spectrometry demethylase assay)
Format: biochemical
Details: C-terminal FLAG-tagged KDM5A 1-1090; class symbols; read-out: 5A IC50
Method in brief: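 FLAG-tagged KDM5A 1-1090 (20 nM) preincubated 30 min with compound in pH 8.0 HEPES buffer with ascorbate, Fe(II), TCEP, then reacted 150 min at 25 °C with H3K4me3 peptide (250 nM) and 2-oxoglutarate (15 μM). Formic acid-quenched; SAMDI-MS substrate/product AUC conversion; IC50 from dose-response.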

SMILES	IC50 [nM]
O=C(O)c1ccncc1Nc1cc(-c2ccccc2)nn1C1CCOCC1 [Compound 23, 3-((3-Phenyl-1-(tetrahydro-2H-pyran-4-yl)-1H-pyrazol-5-yl)amino)isonicotinic acid]	1000 to 10000
Cn1nc(-c2ccc(Cl)cc2)cc1Nc1cnccc1C(=O)O [Compound 24, 3-((3-(4-Chlorophenyl)-1-methyl-1H-pyrazol-5-yl)amino) isonicotinic acid]	1 to 100
Cn1cc(-c2ccccc2)c(Nc2cnccc2C(=O)O)n1 [Compound 3]	1000 to 10000
Cc1c(Nc2cnccc2C(=O)O)nn(CCN2CCC(F)(F)CC2)c1-c1ccccc1 [Compound 67, 3-((1-(2-(4,4-difluoropiperidin-1-yl)ethyl)-4-methyl-5-phenyl-1H-pyrazol-3-yl)amino)isonicotinic acid]	1 to 100
CN1CCN(CCn2ncc(-c3ccccc3)c2Nc2cnccc2C(=O)O)CC1 [Compound 35, 3-((1-(2-(4-methylpiperazin-1-yl)ethyl)-4-phenyl-1H-pyrazol-5-yl)amino)isonicotinic acid]	1 to 100
O=C(O)c1ccncc1Nc1nn(CCN2CCC(F)(F)CC2)cc1C1CCCCC1 [Compound 57, 3-((4-cyclohexyl-1-(2-(4,4-difluoropiperidin-1-yl)ethyl)-1H-pyrazol-3-yl)amino)isonicotinic acid]	100 to 1000
Cc1n[nH]c(-c2ccccc2)c1Nc1cnccc1C(=O)O [Compound 55, 3-((5-methyl-3-phenyl-1H-pyrazol-4-yl)amino)isonicotinic acid]	1000 to 10000
Cc1nn(C2CCN(CC(F)(F)F)CC2)cc1Nc1cnccc1C(=O)O [Compound 99, 3-(3-methyl-1-(1-(2,2,2-trifluoroethyl)piperidin-4-yl)-1H-pyrazol-4-ylamino)isonicotinic acid]	100 to 1000
Cc1c(Nc2cnccc2C(=O)O)cnn1[C@H]1CC[C@@H](N)CC1 [Compound 79, 3-((1-((cis)-4-aminocyclohexyl)-5-methyl-1H-pyrazol-4-yl)amino)isonicotinic acid]	1000 to 10000
Cc1nn(C2CCCNCC2)cc1Nc1cnccc1C(=O)O (single isomer, unassigned) [Compound 114]	100 to 1000
N[C@H]1CC[C@H](n2nc(-c3ccccc3)cc2Nc2cnccc2C(=O)O)CC1 [Compound 38, 3-((1-((trans)-4-aminocyclohexyl)-3-phenyl-1H-pyrazol-5-yl)amino)isonicotinic acid]	1000 to 10000
CC(C)n1nc(-c2ccccc2)cc1Nc1cnccc1C(=O)O [Compound 22, 3-((1-Isopropyl-3-phenyl-1H-pyrazol-5-yl)amino)isonicotinic acid]	100 to 1000
O=C(O)c1ccncc1Nc1cc(-c2ccccc2)nn1-c1ccncc1 [Compound 56, 3-((3-phenyl-1-(pyridin-4-yl)-1H-pyrazol-5-yl)amino) isonicotinic acid]	1000 to 10000
O=C(O)c1ccncc1Nc1cc(-c2ccccc2)nn1[C@H]1CC[C@H](O)CC1 [Compound 39, 3-((1-((trans)-4-hydroxycyclohexyl)-3-phenyl-1H-pyrazol-5-yl)amino)isonicotinic acid]	10000 to 100000
Cn1cc(-c2ccccc2F)c(Nc2cnccc2C(=O)O)n1 [Compound 11, 3-((4-(2-Fluorophenyl)-1-methyl-1H-pyrazol-3-yl)amino) isonicotinic acid]	1000 to 10000
Cc1nn(-c2ccc(O)cc2)c(C)c1Nc1cnccc1C(=O)O [Compound 76, 3-((1-(4-hydroxyphenyl)-3,5-dimethyl-1H-pyrazol-4-yl)amino)isonicotinic acid]	10000 to 100000

SMILES	IC50 [nM]
Cn1nc(-c2cccc(Cl)c2)cc1Nc1cnccc1C(=O)O [Compound 25, 3-((3-(3-chlorophenyl)-1-methyl-1H-pyrazol-5-yl)amino) isonicotinic acid]	1 to 100
Cn1ncc(-c2ccccc2)c1Nc1cnccc1C(=O)O [Compound 1]	1000 to 10000
Cc1c(Nc2cnccc2C(=O)O)cnn1C1CCN(CC(F)(F)F)CC1 [Compound 100, 3-(5-methyl-1-(1-(2,2,2-tri-fluoro-ethyl)piperidin-4-yl)-1H-pyrazol-4-ylamino)isonicotinic acid]	1000 to 10000
Cc1c(Nc2cnccc2C(=O)O)cnn1C1CCN(C2CCC2)CC1 [Compound 96]	1000 to 10000
CNC(=O)c1ccc(-n2ncc(Nc3cnccc3C(=O)O)c2C)cc1 [Compound 58, 3-((5-methyl-1-(4-(methylcarbamoyl)phenyl)-1H-pyrazol-4-yl)amino) isonicotinic acid]	1000 to 10000
Cc1cn(-c2ccccc2)c(Nc2cnccc2C(=O)O)n1 [Compound 2]	1000 to 10000
Cn1nc(-c2ccccc2)cc1Nc1cnccc1C(=O)O [Compound 6]	1 to 100
CNC(=O)c1cccc(-n2ncc(Nc3cnccc3C(=O)O)c2C)c1 [Compound 59, 3-((5-methyl-1-(3-(methylcarbamoyl)phenyl)-1H-pyrazol-4-yl)amino) isonicotinic acid]	1000 to 10000
CCn1nc(-c2ccccc2)cc1Nc1cnccc1C(=O)O [Compound 36, 3-((1-Ethyl-3-phenyl-1H-pyrazol-5-yl)amino)isonicotinic acid]	1 to 100
Cc1n[nH]c(C)c1Nc1cnccc1C(=O)O [Compound 16, 3-((3,5-Dimethyl-1H-pyrazol-4-yl)amino)isonicotinic acid]	10000 to 100000
Cn1cc(-c2cccc(F)c2)c(Nc2cnccc2C(=O)O)n1 [Compound 9, 3-((4-(3-Fluorophenyl)-1-methyl-1H-pyrazol-3-yl)amino) isonicotinic acid]	100 to 1000
Cc1nn(C2CCN(C(=O)c3ccccc3)CC2)cc1Nc1cnccc1C(=O)O [Compound 97, 3-(1-(1-benzoylpiperidin-4-yl)-3-methyl-1H-pyrazol-4-ylamino) isonicotinic acid]	100 to 1000
Cc1c(Nc2cnccc2C(=O)O)cnn1C1CCN(C(C)C)CC1 [Compound 104]	1000 to 10000
Cn1ncc(-c2ccccc2F)c1Nc1cnccc1C(=O)O [Compound 12, 3-((4-(2-fluorophenyl)-1-methyl-1H-pyrazol-5-yl)amino) isonicotinic acid]	100 to 1000
Cc1cn(-c2ccccc2)nc1Nc1cnccc1C(=O)O [Compound 62, 3-((4-methyl-1-phenyl-1H-pyrazol-3-yl)amino) isonicotinic acid]	1 to 100
O=C(O)c1ccncc1Nc1cc(-c2ccccc2)nn1[C@H]1CC[C@@H](O)CC1 [Compound 40, 3-((1-((cis)-4-Hydroxycyclohexyl)-3-phenyl-1H-pyrazol-5-yl)amino)isonicotinic acid]	1000 to 10000
